Assay results: US12653190B2, “Heteroaryl-triazole compounds as pesticides” (Bayer Aktiengesellschaft, priority 2020, dated 2026)

What was measured:
Type in all cases: in vivo
[1] = tested on: adult flies Musca domestica strain WHO-N; test: Musca domestica test (MUSCDO surface treatment & contact assay); conditions: surface concentration 4 mg/m^2, 30 minutes exposure, 24 hours after contact, read-out: efficacy (mortality)
In short: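 Compound dissolved in acetone (2 mg/ml) with 2000 ppm rapeseed oil methyl ester and dried onto glazed tiles. Adult WHO-N strain flies were held on the treated surface for 30 minutes, with % mortality scored 24 hours after contact.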

[2] = tested on: fall armyworm larvae (Spodoptera frugiperda); test: Spodoptera frugiperda spray test; conditions: in Zea mays, 168 h
In short: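 Maize leaf sections were sprayed with compound in acetone/dimethylformamide diluted in water with 1000 ppm emulsifier, dried, then infested with larvae. Mortality in % was scored after 7 days, 100% meaning all caterpillars killed.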

[3] = tested on: adult unfed cat fleas (Ctenocephalides felis); test: Ctenocephalides felis oral test; conditions: 48 h, 100 ppm in cattle blood, after 2 days
In short: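 About 20 adult unfed fleas feed through parafilm on cattle blood spiked with compound (DMSO stock diluted in blood); blood held at 37° C., fleas at room temperature. Mortality (%) scored after 2 days, 100% meaning all fleas killed.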

[4] = tested on: adult mosquitoes Culex quinquefasciatus strain P00; test: Culex quinquefasciatus test (CULXFA surface treatment & contact assay); conditions: surface concentration 20 mg/m^2, 30 minutes exposure, 24 hours after contact, read-out: efficacy (mortality)
Method: Culex quinquefasciatus Test (CULXFA Surface Treatment & Contact Assay)
• Solvent: Aceton+2000 ppm rapeseed oil methyl ester (RME)
In order to produce a sufficient, active ingredient containing solution it is necessary to solve the test compound in the solvent-mix (acetone at 2 mg/ml/RME 2 000 ppm). This solution is pipetted onto a glazed tile and after evaporation of the acetone, adult mosquitoes of the species Culex Quinquefasciatus strain P00 are placed onto the dried surface. The exposure time is 30 minutes. Mortality in percent (%) is determined 24 hours after contact of the insects to the treated surface. 100% mortality means that all tested insects are dead, whereas 0% means that no insect died.

[5] = tested on: green peach aphid (Myzus persicae); test: Myzus persicae spray test; conditions: foliar, 120 h, after 5 days, Chinese cabbage leaf disks
In short: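 Chinese cabbage leaf disks infested with all aphid instars were sprayed with compound in acetone/DMF, diluted in water with 1000 ppm alkylarylpolyglycol ether emulsifier. Mortality (%) scored after 5 days, 100% meaning all aphids killed.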

[6] = tested on: adult cat fleas (Ctenocephalides felis); test: Ctenocephalides felis in-vitro contact test, adult cat flea; conditions: 5 μg/cm^2 (=500 g/ha), after 48 hours, read-out: efficacy (fleas dead or moribund)
In short: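 Compound in acetone coated onto inner walls of glass tubes (900 ppm solution giving 5 μg/cm^2); after drying, 5-10 adult fleas added and kept at room temperature. At 48 h, fleas placed on 45-50 °C plate ≤5 min; immotile or uncoordinated ones scored dead/moribund; efficacy as % dead/moribund.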

[7] = tested on: adult engorged female ticks (Rhipicephalus microplus); test: Rhipicephalus (Boophilus) microplus injection test; conditions: 168 h, egg deposition monitored after 7 days, read-out: efficacy (infertile eggs)
In short: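 Five adult engorged female ticks each injected with 1 μL of DMSO compound solution into the abdomen, then kept in a climate chamber. Fertile egg deposition assessed after 7 days, with hatching followed to about 42 days; efficacy 100% means all eggs infertile, 0% all fertile.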

[8] = tested on: Rhipicephalus (Boophilus) microplus larvae (strain Parkhurst, resistant against synthetic pyrethroids); test: Rhipicephalus (Boophilus) microplus in-vitro contact test, larval cattle tick; conditions: 5 μg/cm^2 (=500 g/ha), after 48 hours, read-out: efficacy (larvae dead or moribund)
In short: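 Acetone solutions coated onto glass tube walls, 900 ppm giving 5 μg/cm^2; 20–50 larvae per tube after solvent evaporation. Incubated 48 h at 27 °C, 85% relative humidity; efficacy from negative geotaxis, 100% meaning all larvae dead or moribund.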

C[C@H](NC(=O)c1cc(Cl)cc(OS(C)(=O)=O)c1)c1ncnn1-c1ccc(C#N)cn1 [Example I-46]
mortality at 4 mg/m2 [1]: 80 to 100%
mortality at 100 g/ha [2]: 100%
mortality at 100 ppm [3]: 100%
mortality at 20 mg/m2 [4]: 80 to 100%
mortality at 100 g/ha [5]: 100%
pest or weed control at 5 µg/cm2, 5 µg/cm2 [6]: 100%
pest or weed control at 4 µg/tick ([7]; 4 μg/tick injected): 100%
pest or weed control at 20 µg/tick ([7]; 20 μg/tick injected): 100%
pest or weed control at 5 µg/cm2, 5 µg/cm2 [8]: 100%
